Measured values from patent publication US10370388B2, “Heterocyclic compounds and methods of their use” (NOVARTIS AG, priority 2012, dated 2019).

How the values were obtained:
AT2 receptor = AT2 receptor (Homo sapiens (Human), UniProt P50052); experiment: AT2 receptor binding assay ([125I]-CGP42112A, HEK293/AT2 receptor cell membranes); conditions: displacement of [125I]-CGP42112A
Protocol: Trypsin-EDTA (for preparation of 100 mL) • Trypsin 0.25 g • 2% EDTA 2 mL • PBS 98 mL • Dissolve trypsin in 2% EDTA and PBS completely; sterilize the solution by passing through a […] membrane filter; store at 4° C. • 2. […] Add slowly with stirring. • Dilute to 1 liter with ddH2O. • Sterilize the medium immediately by filtration. • Store at 4° C. • 3. TE buffer • 20 mM Tris-HCl, pH 7.4, • 5 mM EDTA • 4. Binding Assay Buffer • 50 mM Hepes, pH 7.4 • 5 mM MgCl2 • 1 mM CaCl2 • 0.2% BSA • 5.
Cells were ready for transfection after overnight incubation (the confluence reaches around 80%). • 75 μL Lipofectamine™2000 diluted in 6.25 mL OptiMEM I Reduced Serum Medium, was mixed gently, and incubated at room temperature for 5 minutes. 50 μg expression plasmid DNA diluted in 6.25 mL OptiMEM I Reduced Serum Medium without serum was mixed gently. • After the 5 minute incubation, the diluted DNA was combined with the diluted Lipofectamine™2000 (total volume is 12.5 mL).
Solutions of all compounds were prepared by microplate liquid handling equipment such as Janus or Precision 2000. Compounds, dissolved in DMSO were stored in a Freezer. Compounds were prepared from 30 mM in 100% DMSO.
All the compounds were diluted using Precision 2000 microplate liquid handling equipment. The top concentration of compound was 5 mM with 100% DMSO.
Step 3: Assay Plate Preparation (96 Well Plate)

AT1 receptor = AT1 receptor (Homo sapiens (Human), UniProt P30556); experiment: AT1 receptor binding assay ([125I]-Sar1-Ile8-Angiotensin II, HEK293/AT1 receptor cell membranes); conditions: similar assay, at 10 μM
Text: Biological Example 2: AT1 Receptor Binding
The same media, solutions, cell procedures and compound preparation was used as for Biological Example 1 but using HEK293/AT1 Receptor Transient Cells.

NG108-15 neurite cells = experiment: AT2 receptor neurite outgrowth assay; format: cell-based; conditions: NG108-15 cells, in the presence of angiotensin II 0.1 μM, compound 0.003-10 μM
Protocol: Biological Example 3: AT2 Receptor Neurite Outgrowth Assay
The general methodology of Wallinder (2008) and references cited therein was used to assess the effect of the compounds of the present invention on neurite outgrowth. The assay was adapted for high content screening.
EMA1087 is a known AT2 receptor agonist described as “compound 21” in Wan et al. 2004. PD-123,319 is a known, commercially available AT2 receptor antagonist. The results were analyzed by immunofluorescence quantitative analysis. Neurite outgrowth was quantified with neurite average length using Cellomics software. Results are expressed as the mean±SEM, each conducted in triplicate. Statistical significance, compared with Ang II control: *p<0.05, **p<0.01, and ***p<0.001. NS: no significant difference. ND: not determined. FIGS. 1 to 5 show neurite outgrowth was inhibited by the AT2 receptor antagonists, PD-126,055 and compounds 6, 15, 21 and 28.

AT2 receptor, sequence (P50052 whole entry, species assumed): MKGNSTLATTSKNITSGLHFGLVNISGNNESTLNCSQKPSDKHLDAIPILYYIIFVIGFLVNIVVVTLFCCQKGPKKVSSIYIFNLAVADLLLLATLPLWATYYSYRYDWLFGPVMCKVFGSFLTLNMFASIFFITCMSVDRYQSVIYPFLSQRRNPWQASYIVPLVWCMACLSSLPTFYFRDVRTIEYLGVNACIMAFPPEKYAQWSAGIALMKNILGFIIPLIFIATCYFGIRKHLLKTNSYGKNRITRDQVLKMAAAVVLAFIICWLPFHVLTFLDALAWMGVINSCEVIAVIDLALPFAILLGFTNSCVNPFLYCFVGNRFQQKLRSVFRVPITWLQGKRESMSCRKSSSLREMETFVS
AT1 receptor, sequence (P30556 whole entry, species assumed): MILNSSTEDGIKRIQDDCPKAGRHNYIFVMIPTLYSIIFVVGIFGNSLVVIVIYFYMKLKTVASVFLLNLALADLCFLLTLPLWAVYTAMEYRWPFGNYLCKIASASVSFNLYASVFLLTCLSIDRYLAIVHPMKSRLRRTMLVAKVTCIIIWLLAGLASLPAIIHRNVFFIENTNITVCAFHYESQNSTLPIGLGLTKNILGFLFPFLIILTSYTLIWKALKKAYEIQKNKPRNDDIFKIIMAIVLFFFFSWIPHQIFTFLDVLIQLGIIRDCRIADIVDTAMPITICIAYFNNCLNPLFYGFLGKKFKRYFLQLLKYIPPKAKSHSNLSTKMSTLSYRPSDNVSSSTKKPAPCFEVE

| Compound | IC50 (AT2 receptor) [nM] | AT1 receptor binding (AT1 receptor) | neurite outgrowth (neurite average length) (NG108-15 neurite cells) |
| --- | --- | --- | --- |
| O=C(O)[C@@H]1C[C@H](c2sccc2-c2ccccc2)CN1C(=O)C(c1ccccc1)c1ccccc1 [Compound 107, (2S,4S)-1-(2,2-diphenylacetyl)-4-(3-phenylthiophen-2-yl)-pyrrolidine-2-carboxylic acid] | 461 | – | – |
| CN(CCCc1ccc(F)cc1)[C@H]1C[C@@H](C#N)N(C(=O)C(c2ccccc2)c2ccccc2)C1 [Compound 137, (2S,4S)-1-(2,2diphenylacetyl)-4-((3-(4-fluorophenyl)propyl)(methyl)amino)pyrrolidine-2-carbonitrile] | 173 | – | – |
| CN(C)S(=O)(=O)NC(=O)[C@@H]1C[C@H](OCCCc2ccccc2)CN1C(=O)C(c1ccccc1)c1ccccc1 [Compound 112, (2S,4S)—N—(N,N-dimethylsulfamoyl)-1-(2,2-diphenylacetyl)-4-(3-phenylpropoxy)pyrrolidine-2-carboxamide] | – | —: No significant inhibition of binding of the radiolabelled ligand even at top concentration tested (10 μM). Compounds 6, 112, 136 and 138 were also analysed in a similar assay and showed no AT1 receptor binding at 10 μM. | – |
| O=C(O)C1Cc2c(OCc3ccccc3)cccc2N1C(=O)C(c1ccccc1)c1ccccc1 (stereo not drawn) [Compound 15, 4-(benzyloxy)-1-(2,2-diphenylacetyl)indoline-2-carboxylic acid] | – | – | inhibited |
| CN(CCCc1ccc(F)cc1)[C@H]1C[C@@H](C(N)=O)N(C(=O)C(c2ccccc2)c2ccccc2)C1 [Compound 136, (2S,4S)-1-(2,2-diphenylacetyl)-4-((3-(4-fluorophenyl)propyl)(methyl)amino)pyrrolidine-2-carboxamide] | 89 | —: No significant inhibition of binding of the radiolabelled ligand even at top concentration tested (10 μM). Compounds 6, 112, 136 and 138 were also analysed in a similar assay and showed no AT1 receptor binding at 10 μM. | – |
